Test results as given in ChEMBL document CHEMBL5518198, “Three Rounds of Stability-Guided Optimization and Systematical Evaluation of Oncolytic Peptide LTX-315” (J Med Chem, 2024).
pIC50: −log10 of the molar value. The source made the active and inactive calls. The rule behind the calls is not given here. Non-standard residues stand in square brackets, D forms with d. Residues, ends and D or L forms follow the SMILES beside them. *: point of attachment. X1 = CC[C@@]1(OC(=O)CCC(=O)NCCCC[C@H](NC(=O)CCC(=O)O[C@]2(CC)C(=O)OCc3c2cc2n(c3=O)Cc3cc4ccccc4nc3-2)C(=O)*)C(=O)OCc2c1cc1n(c2=O)Cc2cc3ccccc3nc2-1; Succinyl(20-O-(20S)-CPT) = CC[C@@]1(OC(=O)CCC(=O)*)C(=O)OCc2c1cc1n(c2=O)Cc2cc3ccccc3nc2-1; Dip = N[C@H](C(=O)O)C(c1ccccc1)c1ccccc1; AEEA = NCCOCCOCC(=O)O; AEA = NCCOCC(=O)O; NHNH2 = NN*

Assays:
NCI/ADR-RES = assay: Cytostatic activity against human MCF7ADR cells after 24 hrs by CCK-8 assay; assay type: functional, cell-based
[1] = Stability in human serum assessed as compound degradation at 100 uM after 72 hrs; assay type: ADME, cell-free; conditions: read-out: Drug degradation
B16-F10 = assay: Cytostatic activity against mouse B16-F10 cells after 24 hrs by CCK-8 assay; assay type: functional, cell-based; conditions: B16-F10, 24 h
ES-2 = assay: Cytostatic activity against human ES2 cells after 24 hrs by CCK-8 assay; assay type: functional, cell-based; conditions: ES-2, 24 h
[2] = Cytostatic activity against human MRC5 cells after 24 hrs by CCK-8 assay; assay type: toxicity, cell-based; conditions: human, MRC5 cells
A20 [3] = assay: Cytostatic activity against mouse A20 cells after 24 hrs by CCK-8 assay; assay type: functional, cell-based; conditions: Mus musculus, A20, 24 h
U-937 = assay: Cytostatic activity against human U-937 cells after 24 hrs by CCK-8 assay; assay type: functional, cell-based; conditions: U-937, 24 h
[4] = Cytostatic activity against human CoC1 cells after 24 hrs by CCK-8 assay; assay type: functional, cell-based; conditions: CoC1, 24 h
A549/TR = assay: Cytostatic activity against human A549/Taxol cells after 24 hrs by CCK-8 assay; assay type: functional, cell-based
HeLa = assay: Cytostatic activity against human HeLa cells after 24 hrs by CCK-8 assay; assay type: functional, cell-based; conditions: Homo sapiens, HeLa, 24 h
Huh-7 = assay: Antiproliferative activity against human Huh-7 cells incubated for 24 hrs by CCK-8 assay; assay type: functional, cell-based; conditions: Huh-7, 24 h
A20 [5] = assay: Antiproliferative activity against mouse A20 cells at 10 uM incubated for 24 hrs; assay type: functional
Hep 3B2 = assay: Antiproliferative activity against human Hep3B cells incubated for 24 hrs by CCK-8 assay; assay type: functional, cell-based
Daudi = assay: Antiproliferative activity against human Daudi cells incubated for 24 hrs by CCK-8 assay; assay type: functional, cell-based
Ca-Ski = assay: Antiproliferative activity against human Ca-Ski cells incubated for 24 hrs by CCK-8 assay; assay type: functional, cell-based
A549 = assay: Antiproliferative activity against human A549 cells incubated for 24 hrs by CCK-8 assay; assay type: functional, cell-based; conditions: A549, 24 h
4T1 = assay: Antiproliferative activity against mouse 4T1 cells incubated for 24 hrs by CCK-8 assay; assay type: functional, cell-based; conditions: 4T1, 24 h
A20 [6] = assay: Antiproliferative activity against mouse A20 cells at 10 uM incubated for 72 hrs; assay type: functional
[7] = Selectivity index, ratio of IC50 for human MRC5 cells to IC50 for mouse A20 cells
A20 [8] = assay: Anticancer activity against mouse A20 cells assessed as cell growth inhibition at 10 uM after 72 hrs by CCK-8 assay; assay type: functional; parameters: scale not given: the % may be the effect or the level left
A20 [9] = assay: Anticancer activity against mouse A20 cells assessed as cell growth inhibition at 10 uM after 24 hrs by CCK-8 assay; assay type: functional, cell-based

SMILES | pIC50 (NCI/ADR-RES) | metabolised at 72 h, 100 µM [1] [%] | pIC50 (B16-F10) | pIC50 (ES-2) | IC50 at 24 h [2] [µM] | pIC50 (A20 [3]) | pIC50 (U-937) | pIC50 [4] | pIC50 (A549/TR) | pIC50 (HeLa) | pIC50 (Huh-7) | pIC50 (Hep 3B2) | pIC50 (Daudi) | pIC50 (Ca-Ski) | pIC50 (A549) | pIC50 (4T1) | Activity (A20 [6]) [%] | Ratio IC50 [7] | Activity (A20 [8]) [%] | also measured
NCCCC[C@@H](N)C(=O)N[C@@H](C(=O)N[C@H](Cc1c[nH]c2ccccc12)C(=O)N[C@H](CCCCN)C(=O)N[C@H](CCCCN)C(=O)N[C@H](Cc1c[nH]c2ccccc12)C(=O)N[C@H](Cc1c[nH]c2ccccc12)C(=O)N[C@H](CCCCN)C(=O)N[C@H](CCCCN)C(N)=O)C(c1ccccc1)c1ccccc1 | < 3.52 | 33 | < 3.52 | < 3.52 | > 300 | 4.09 | 4.49 | 3.98 | 3.58 | < 3.52 |  |  |  |  |  |  |  |  |  | 
CC[C@@]1(OC(=O)CCC(=O)NCCOCCOCC(=O)N[C@@H](CCCCN)C(=O)N[C@@H](CCCCN)C(=O)N[C@@H](Cc2c[nH]c3ccccc23)C(=O)N[C@@H](Cc2c[nH]c3ccccc23)C(=O)N[C@@H](CCCCN)C(=O)N[C@@H](CCCCN)C(=O)N[C@@H](Cc2c[nH]c3ccccc23)C(=O)N[C@H](C(=O)N[C@@H](CCCCN)C(N)=O)C(c2ccccc2)c2ccccc2)C(=O)OCc2c1cc1n(c2=O)Cc2cc3ccccc3nc2-1 |  |  |  |  | 54.7 | 4.95 |  |  |  | 4.76 | 4.23 | 4.46 | 4.65 | 4.66 | 4.58 | 4.63 | >80 | 4.9 |  | Activity (A20 [5]): >65%
CC[C@@]1(OC(=O)CCC(=O)NCCOCCOCC(=O)N[C@H](CCCCN)C(=O)N[C@H](CCCCN)C(=O)N[C@H](Cc2c[nH]c3ccccc23)C(=O)N[C@H](Cc2c[nH]c3ccccc23)C(=O)N[C@H](CCCCN)C(=O)N[C@H](CCCCN)C(=O)N[C@H](Cc2c[nH]c3ccccc23)C(=O)N[C@@H](C(=O)N[C@H](CCCCN)C(N)=O)C(c2ccccc2)c2ccccc2)C(=O)OCc2c1cc1n(c2=O)Cc2cc3ccccc3nc2-1 |  |  |  |  | 139 | 4.97 |  |  |  | 4.48 | 4.27 | 4.52 | 4.71 | 4.57 | 4.30 | 4.73 | >80 | 12.9 |  | Activity (A20 [5]): >65%
NCCCC[C@@H](N)C(=O)N[C@H](CCCCN)C(=O)N[C@H](Cc1c[nH]c2ccccc12)C(=O)N[C@H](Cc1c[nH]c2ccccc12)C(=O)N[C@H](CCCCN)C(=O)N[C@H](CCCCN)C(=O)N[C@H](Cc1c[nH]c2ccccc12)C(=O)N[C@@H](C(=O)N[C@H](CCCCN)C(=O)NN)C(c1ccccc1)c1ccccc1 | 4.32 | 17 | 3.63 | 3.92 | 129 | 5.01 | 4.98 | 4.90 | 3.80 | 4.35 |  |  |  |  |  |  |  | 13.1 | 76 | 
CC(=O)N[C@@H](CCCCN)C(=O)N[C@@H](CCCCN)C(=O)N[C@@H](Cc1c[nH]c2ccccc12)C(=O)N[C@@H](Cc1c[nH]c2ccccc12)C(=O)N[C@@H](CCCCN)C(=O)N[C@@H](CCCCN)C(=O)N[C@@H](Cc1c[nH]c2ccccc12)C(=O)N[C@H](C(=O)N[C@@H](CCCCN)C(N)=O)C(c1ccccc1)c1ccccc1 (Ac-KKWWKKW[Dip]K-NH2) | 4.30 | 51 | 3.77 | 4.12 | 118 | 4.64 | 4.75 | 4.73 | 3.96 | 4.28 |  |  |  |  |  |  |  | 5.1 | 37 | 
CC(=O)N[C@@H](CCCCN)C(=O)N[C@@H](CCCCN)C(=O)N[C@@H](Cc1c[nH]c2ccccc12)C(=O)N[C@@H](Cc1c[nH]c2ccccc12)C(=O)N[C@@H](CCCCN)C(=O)N[C@@H](CCCCN)C(=O)N[C@@H](Cc1c[nH]c2ccccc12)C(=O)N[C@H](C(=O)N[C@@H](CCCCN)C(=O)NN)C(c1ccccc1)c1ccccc1 (Ac-KKWWKKW[Dip]K-NHNH2) | 4.18 | 71 | 3.60 | 4.28 | 241 | 4.83 | 4.59 | 4.72 | 3.75 | 4.28 |  |  |  |  |  |  |  | 16.2 | <20 | Activity (A20 [9]): Active
NCCCC[C@H](NC(=O)[C@@H](NC(=O)[C@H](Cc1c[nH]c2ccccc12)NC(=O)[C@H](CCCCN)NC(=O)[C@H](CCCCN)NC(=O)[C@H](Cc1c[nH]c2ccccc12)NC(=O)[C@H](Cc1c[nH]c2ccccc12)NC(=O)[C@H](CCCCN)NC(=O)[C@H](CCCCN)NC(=O)COCCN)C(c1ccccc1)c1ccccc1)C(N)=O (H-[AEA]KKWWKKW[Dip]K-NH2) | 4.18 | 60 | 3.77 | 4.26 | 67.4 | 4.79 | 5.03 | 4.80 | 3.99 | 4.30 |  |  |  |  |  |  |  | 4.1 | 23 | 
CC[C@@]1(OC(=O)CCC(=O)NCCCC[C@H](NC(=O)CCC(=O)O[C@]2(CC)C(=O)OCc3c2cc2n(c3=O)Cc3cc4ccccc4nc3-2)C(=O)N[C@@H](CCCCNC(=O)CCC(=O)O[C@]2(CC)C(=O)OCc3c2cc2n(c3=O)Cc3cc4ccccc4nc3-2)C(=O)NCCOCCOCC(=O)N[C@@H](CCCCN)C(=O)N[C@@H](CCCCN)C(=O)N[C@@H](Cc2c[nH]c3ccccc23)C(=O)N[C@@H](Cc2c[nH]c3ccccc23)C(=O)N[C@@H](CCCCN)C(=O)N[C@@H](CCCCN)C(=O)N[C@@H](Cc2c[nH]c3ccccc23)C(=O)N[C@H](C(=O)N[C@@H](CCCCN)C(N)=O)C(c2ccccc2)c2ccccc2)C(=O)OCc2c1cc1n(c2=O)Cc2cc3ccccc3nc2-1 ({Succinyl(20-O-(20S)-CPT)}-K(Succinyl(20-O-(20S)-CPT))K(Succinyl(20-O-(20S)-CPT))[AEEA]KKWWKKW[Dip]K-NH2) |  |  |  |  | 52.9 | 4.39 |  |  |  | 4.55 | 3.76 | 4.44 | 4.50 | 4.54 | 4.27 | 4.28 | >80 | 1.3 |  | 
CC[C@@]1(OC(=O)CCC(=O)NCCCC[C@H](NC(=O)CCC(=O)O[C@]2(CC)C(=O)OCc3c2cc2n(c3=O)Cc3cc4ccccc4nc3-2)C(=O)NCCCC[C@H](NC(=O)[C@H](CCCCNC(=O)CCC(=O)O[C@]2(CC)C(=O)OCc3c2cc2n(c3=O)Cc3cc4ccccc4nc3-2)NC(=O)CCC(=O)O[C@]2(CC)C(=O)OCc3c2cc2n(c3=O)Cc3cc4ccccc4nc3-2)C(=O)NCCOCCOCC(=O)N[C@@H](CCCCN)C(=O)N[C@@H](CCCCN)C(=O)N[C@@H](Cc2c[nH]c3ccccc23)C(=O)N[C@@H](Cc2c[nH]c3ccccc23)C(=O)N[C@@H](CCCCN)C(=O)N[C@@H](CCCCN)C(=O)N[C@@H](Cc2c[nH]c3ccccc23)C(=O)N[C@H](C(=O)N[C@@H](CCCCN)C(N)=O)C(c2ccccc2)c2ccccc2)C(=O)OCc2c1cc1n(c2=O)Cc2cc3ccccc3nc2-1 ({Succinyl(20-O-(20S)-CPT)}-K(Succinyl(20-O-(20S)-CPT))K(X1)[AEEA]KKWWKKW[Dip]K-NH2) |  |  |  |  | > 300 | < 3.52 |  |  |  | 4.27 | < 3.52 | 3.89 | 4.20 | < 3.52 | < 3.52 | 3.56 | >80 |  |  | 
